In patent publication US10793563B2, “GCN2 inhibitors and uses thereof” (Merck Patent GmbH, priority 2018, dated 2020):

Experiments:
GCN2 kinase = GCN2 kinase (Homo sapiens (Human), UniProt Q9P2K8); assay: GCN2 Enzyme Inhibition Assay (Transcreener ADP2 fluorescence polarization); format: biochemical; conditions: 280 μM ATP, 200 μM (RS)7 peptide, 4 nM GCN2, 25° C.; for Ki: Ki(app)
How it was run: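 Transcreener ADP2 fluorescence polarization detection of ADP from 4 nM GCN2 with (RS)7 substrate in 25 mM Tris-HCl pH 7.5, 50 mM NaCl, 10 mM MgCl2, 1 mM DTT. Compound pre-incubated with enzyme 10 min at 25 °C; reaction started by ATP, run 1 h at 25 °C. IC50 and Ki(app) by tight-binding fit.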

[1] = biological target: intracellular GCN2 (phosphorylation of the GCN2 substrate eIF2α) (Homo sapiens (Human), UniProt Q9P2K8); assay: GCN2 Cellular Inhibition Assay (AlphaScreen SureFire P-eIF2α Ser51, borrelidin-treated U2OS cells); format: cell-based; conditions: 10 μM borrelidin, 1 h, phosphorylated eIF2α Ser51, read-out: GCN2 Biomarker (IC50)
How it was run: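 U2OS cells adhered overnight, then given compound (top 40 μM, 4-fold serial dilutions) plus 10 μM borrelidin for 1 h at 37 °C. Lysates assayed for eIF2α phospho-Ser51 by AlphaScreen SureFire; % inhibition versus borrelidin-only wells.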

GCN2 kinase, sequence (Q9P2K8 whole entry): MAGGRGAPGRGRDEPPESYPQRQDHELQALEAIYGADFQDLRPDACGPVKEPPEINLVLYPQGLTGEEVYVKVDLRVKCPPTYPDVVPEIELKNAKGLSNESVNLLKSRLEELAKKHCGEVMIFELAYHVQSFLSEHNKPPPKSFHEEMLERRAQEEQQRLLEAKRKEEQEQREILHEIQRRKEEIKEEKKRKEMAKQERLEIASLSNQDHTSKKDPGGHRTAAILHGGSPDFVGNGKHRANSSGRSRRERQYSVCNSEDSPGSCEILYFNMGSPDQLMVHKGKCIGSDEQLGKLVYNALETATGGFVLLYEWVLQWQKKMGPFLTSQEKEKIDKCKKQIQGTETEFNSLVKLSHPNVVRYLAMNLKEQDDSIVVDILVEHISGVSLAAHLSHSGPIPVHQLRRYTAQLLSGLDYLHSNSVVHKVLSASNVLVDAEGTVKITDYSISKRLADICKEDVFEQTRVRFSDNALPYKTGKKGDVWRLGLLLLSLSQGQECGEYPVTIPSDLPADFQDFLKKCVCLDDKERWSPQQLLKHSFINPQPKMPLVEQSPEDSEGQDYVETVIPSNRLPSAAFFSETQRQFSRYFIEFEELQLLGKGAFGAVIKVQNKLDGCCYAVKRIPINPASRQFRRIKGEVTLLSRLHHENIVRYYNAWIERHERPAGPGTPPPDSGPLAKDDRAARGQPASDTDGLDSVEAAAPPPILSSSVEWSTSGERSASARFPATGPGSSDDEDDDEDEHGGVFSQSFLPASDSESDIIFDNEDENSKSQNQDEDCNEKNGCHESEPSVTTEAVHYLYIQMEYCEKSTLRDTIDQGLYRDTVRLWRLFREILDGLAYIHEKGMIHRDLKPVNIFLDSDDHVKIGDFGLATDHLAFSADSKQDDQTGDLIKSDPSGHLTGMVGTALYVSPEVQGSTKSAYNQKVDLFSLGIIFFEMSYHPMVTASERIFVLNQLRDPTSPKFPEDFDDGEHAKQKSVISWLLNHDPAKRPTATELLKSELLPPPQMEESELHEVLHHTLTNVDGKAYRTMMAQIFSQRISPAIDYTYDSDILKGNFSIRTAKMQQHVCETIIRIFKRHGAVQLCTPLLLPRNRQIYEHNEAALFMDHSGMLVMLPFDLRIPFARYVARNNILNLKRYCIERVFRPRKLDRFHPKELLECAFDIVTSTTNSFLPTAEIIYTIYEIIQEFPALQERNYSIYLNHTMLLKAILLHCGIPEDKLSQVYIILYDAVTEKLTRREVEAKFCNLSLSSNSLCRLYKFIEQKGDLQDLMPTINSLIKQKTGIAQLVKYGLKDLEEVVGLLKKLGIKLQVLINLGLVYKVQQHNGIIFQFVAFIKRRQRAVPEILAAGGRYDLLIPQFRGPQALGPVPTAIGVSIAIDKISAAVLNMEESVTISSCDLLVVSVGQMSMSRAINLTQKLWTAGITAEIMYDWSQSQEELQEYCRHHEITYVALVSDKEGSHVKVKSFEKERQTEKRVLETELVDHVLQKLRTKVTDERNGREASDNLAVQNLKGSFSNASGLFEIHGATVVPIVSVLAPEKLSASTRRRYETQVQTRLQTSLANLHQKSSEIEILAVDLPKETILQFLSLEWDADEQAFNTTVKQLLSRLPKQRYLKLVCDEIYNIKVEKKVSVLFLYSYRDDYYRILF
intracellular GCN2 (phosphorylation of the GCN2 substrate eIF2α), sequence (Q9P2K8 whole entry): as above

Row | IC50 (GCN2 kinase) | IC50 [1] | Ki (GCN2 kinase) | Structure (SMILES)
1 | < 10 nM | < 500 nM |  | FC(F)(F)c1ccc2ncc(-c3nccc(N4CCN[C@@H](c5cn[nH]c5)C4)n3)n2c1 [I-533, (S)-3-(4-(3-(1H-pyrazol-4-yl)piperazin-1-yl)pyrimidin-2-yl)-6-(trifluoromethyl)imidazo[1,2-a]pyridine]
2 | < 10 nM | < 500 nM |  | FC(F)(F)c1ccc2ncc(-c3ccnc(N4CCN(C5CC5)[C@H](c5cn[nH]c5)C4)n3)n2c1 [I-508, 3-{2-[(R)-4-Cyclopropyl-3-(1H-pyrazol-4-yl)-piperazin-1-yl]-pyrimidin-4-yl}-6-trifluoromethyl-imidazo[1,2-a]pyridine]
3 |  | 500 to 5000 nM | < 10 nM | O=C1NCC2CN(c3ccnc(-c4cnc5ccc(C(F)(F)F)cn45)n3)CCN12 (centres unmarked) [I-43, 7-[2-[6-(Trifluoromethyl)imidazo[1,2-a]pyridin-3-yl]pyrimidin-4-yl]-1,2,5,6,8,8a-hexahydroimidazo[1,5-a]pyrazin-3-one]
4 | 10 to 100 nM | 500 to 5000 nM |  | CC1(C)C[C@@H]1CN1CCN(c2ccnc(-c3cnc4ccc(C(F)(F)F)cn34)n2)C[C@@H]1c1cn[nH]c1 [I-527, 3-(4-((S)-4-(((S)-2,2-dimethylcyclopropyl)methyl)-3-(1H-pyrazol-4-yl)piperazin-1-yl)pyrimidin-2-yl)-6-(trifluoromethyl)imidazo[1,2-a]pyridine]
5 | 10 to 100 nM | 500 to 5000 nM |  | O=C(c1cocn1)N1CCN(c2ccnc(-c3cnc4ccc(C(F)(F)F)cn34)n2)CC1c1cn[nH]c1 (centres unmarked) [I-443, (2-(1H-pyrazol-4-yl)-4-(2-(6-(trifluoromethyl)imidazo[1,2-a]pyridin-3-yl)pyrimidin-4-yl)piperazin-1-yl)(oxazol-4-yl)methanone]
6 | < 10 nM | < 500 nM |  | C[C@@H]1C[C@H](c2cn[nH]c2)CN(c2nccc(-c3cnc4ccc(Cl)cn34)n2)C1 [I-196, 6-chloro-3-(2-((3R,5R)-3-methyl-5-(1H-pyrazol-4-yl)piperidin-1-yl)pyrimidin-4-yl)imidazo[1,2-a]pyridine]
7 | 10 to 100 nM | < 500 nM |  | c1ccc(Oc2ccc3ncc(-c4nccc(N5CCCC(c6cn[nH]c6)C5)n4)n3c2)cc1 (centres unmarked) [I-329, 2-{6-phenoxyimidazo[1,2-a]pyridin-3-yl}-4-[3-(1H-pyrazol-4-yl)piperidin-1-yl]pyrimidine]
8 | 100 to 1000 nM | 500 to 5000 nM |  | CC1CN(c2ccnc(-c3cnc4ccc(Cl)cn34)n2)CC(c2cnn(S(C)(=O)=O)c2)N1S(C)(=O)=O (centres unmarked) [I-301, 6-chloro-3-(4-(3-methyl-4-(methylsulfonyl)-5-(1-(methylsulfonyl)-1H-pyrazol-4-yl)piperazin-1-yl)pyrimidin-2-yl)imidazo[1,2-a]pyridine]
9 |  | 500 to 5000 nM | < 10 nM | Clc1ccc2ncc(-c3nccc(N4CCNC(c5cn[nH]c5)C4)n3)n2c1 (centres unmarked) [I-28, 6-Chloro-3-[4-[3-(1H-pyrazol-4-yl)piperazin-1-yl]pyrimidin-2-yl]imidazo[1,2-a]pyridine]
10 | 10 to 100 nM | 500 to 5000 nM |  | Cc1[nH]ncc1C1CC(F)CN(c2ccnc(-c3cnc4cc(F)c(Cl)cn34)n2)C1 (centres unmarked) [I-426, 6-chloro-7-fluoro-3-(4-(3-fluoro-5-(5-methyl-1H-pyrazol-4-yl)piperidin-1-yl)pyrimidin-2-yl)imidazo[1,2-a]pyridine]
11 | 10 to 100 nM | 500 to 5000 nM |  | C[C@@H](NS(C)(=O)=O)[C@H]1CN(c2ccnc(-c3cnc4ccc(C(F)(F)F)cn34)n2)CCO1 [I-406, N—((R)-1-((R)-4-(2-(6-(trifluoromethyl)imidazo[1,2-a]pyridin-3-yl)pyrimidin-4-yl)morpholin-2-yl)ethyl)methanesulfonamide]
12 | 100 to 1000 nM | 500 to 5000 nM |  | CS(=O)(=O)N1CC2(CCCN(c3ccnc(-c4cnc5ccc(C(F)F)cn45)n3)C2)C1 [I-395, 6-(2-(6-(difluoromethyl)imidazo[1,2-a]pyridin-3-yl)pyrimidin-4-yl)-2-(methylsulfonyl)-2,6-diazaspiro[3.5]nonane]
13 | 10 to 100 nM | < 500 nM |  | CS(=O)(=O)NC1CC(C(F)(F)F)CN(c2ccnc(-c3cnc4ccc(C(F)(F)F)cn34)n2)C1 (centres unmarked) [I-478, N-(5-(trifluoromethyl)-1-(2-(6-(trifluoromethyl)imidazo[1,2-a]pyridin-3-yl)pyrimidin-4-yl)piperidin-3-yl)methanesulfonamide]
14 | 10 to 100 nM | 500 to 5000 nM |  | CC(O)C(=O)N1CCN(c2ccnc(-c3cnc4ccc(C(F)(F)F)cn34)n2)CC1c1cn[nH]c1 (centres unmarked) [I-420, 1-(2-(1H-pyrazol-4-yl)-4-(2-(6-(trifluoromethyl)imidazo[1,2-a]pyridin-3-yl)pyrimidin-4-yl)piperazin-1-yl)-2-hydroxypropan-1-one]
15 | < 10 nM | 500 to 5000 nM |  | OCC(O)CN1CCN(c2ccnc(-c3cnc4ccc(C(F)(F)F)cn34)n2)CC1c1cn[nH]c1 (centres unmarked) [I-352, 3-(2-(1H-pyrazol-4-yl)-4-(2-(6-(trifluoromethyl)imidazo[1,2-a]pyridin-3-yl)pyrimidin-4-yl)piperazin-1-yl)propane-1,2-diol]
16 |  | 500 to 5000 nM | < 10 nM | CS(=O)(=O)NCC1CCCN(c2nc(-c3cnc4ccc(C(F)(F)F)cn34)ns2)C1 (centres unmarked) [I-112, N-((1-(3-(6-(trifluoromethyl)imidazo[1,2-a]pyridin-3-yl)-1,2,4-thiadiazol-5-yl)piperidin-3-yl)methyl)methanesulfonamide]
17 |  | < 500 nM | < 10 nM | FC(F)(F)c1ccc2ncc(-c3cccc(N4CCOC(c5cn[nH]c5)C4)n3)n2c1 (centres unmarked) [I-12, 2-(1H-Pyrazol-4-yl)-4-[6-[6-(trifluoromethyl)imidazo[1,2-a]pyridin-3-yl]-2-pyridyl]morpholine]
18 | 100 to 1000 nM | 500 to 5000 nM |  | COCCn1cc([C@@H]2C[C@H](C)CN(c3nccc(-c4cnc5ccc(C(F)(F)F)cn45)n3)C2)cn1 [I-146, 3-(2-((3S,5S)-3-(1-(2-methoxyethyl)-1H-pyrazol-4-yl)-5-methylpiperidin-1-yl)pyrimidin-4-yl)-6-(trifluoromethyl)imidazo[1,2-a]pyridine]
19 | 10 to 100 nM | < 500 nM |  | C[C@H]1C[C@H](c2cn[nH]c2)CN(c2nccc(-c3cnc4ccc(C5CC5)cn34)n2)C1 [I-235, 6-cyclopropyl-3-(2-((3S,5R)-3-methyl-5-(1H-pyrazol-4-yl)piperidin-1-yl)pyrimidin-4-yl)imidazo[1,2-a]pyridine]
20 | 10 to 100 nM | 500 to 5000 nM |  | CC1C(CNS(C)(=O)=O)N(C2COC2)CCN1c1ccnc(-c2cnc3ccc(C(F)F)cn23)n1 (centres unmarked) [I-530, N-((4-(2-(6-(difluoromethyl)imidazo[1,2-a]pyridin-3-yl)pyrimidin-4-yl)-3-methyl-1-(oxetan-3-yl)piperazin-2-yl)methyl)methanesulfonamide]
21 | 10 to 100 nM | 500 to 5000 nM |  | CN(CC1CCCN(c2ccnc(-c3cnc4ccc(Cl)cn34)n2)C1)S(C)(=O)=O (centres unmarked) [I-283, N-((1-(2-(6-chloroimidazo[1,2-a]pyridin-3-yl)pyrimidin-4-yl)piperidin-3-yl)methyl)-N-methylmethanesulfonamide]
22 | 100 to 1000 nM | 500 to 5000 nM |  | Cc1oncc1[C@H]1CN(c2ccnc(-c3cnc4ccc(C(F)(F)F)cn34)n2)C[C@H](C)O1 [I-345, (2S,6S)-2-methyl-6-(5-methylisoxazol-4-yl)-4-(2-(6-(trifluoromethyl)imidazo[1,2-a]pyridin-3-yl)pyrimidin-4-yl)morpholine]
23 | < 10 nM | < 500 nM |  | Cn1cc(CN2CCN(c3ccnc(-c4cnc5ccc(C(F)(F)F)cn45)n3)CC2c2cn[nH]c2)cn1 (centres unmarked) [I-384, 3-(4-(4-((1-methyl-1H-pyrazol-4-yl)methyl)-3-(1H-pyrazol-4-yl)piperazin-1-yl)pyrimidin-2-yl)-6-(trifluoromethyl)imidazo[1,2-a]pyridine]
24 |  | < 500 nM | < 10 nM | CS(=O)(=O)NC[C@@H]1CN(c2nc(-c3cnc4ccc(C(F)F)cn34)ns2)CCO1 [I-107, (S)—N-((4-(3-(6-(difluoromethyl)imidazo[1,2-a]pyridin-3-yl)-1,2,4-thiadiazol-5-yl)morpholin-2-yl)methyl)methanesulfonamide]
25 |  | < 500 nM | < 10 nM | C[C@H]1CN(c2nc(-c3cnc4ccc(C(F)F)cn34)ns2)C[C@@H](CNS(C)(=O)=O)C1(F)F [I-103, N-(((3S,5S)-1-(3-(6-(difluoromethyl)imidazo[1,2-a]pyridin-3-yl)-1,2,4-thiadiazol-5-yl)-4,4-difluoro-5-methylpiperidin-3-yl)methyl)methanesulfonamide]
26 | 10 to 100 nM | < 500 nM |  | FC(F)(F)c1ccc2ncc(-c3nccc(N4CCN(C5CC5)C(c5cn[nH]c5)C4)n3)n2c1 (stereo in doubt) [I-503, (R)-3-(4-(4-cyclopropyl-3-(1H-pyrazol-4-yl)piperazin-1-yl)pyrimidin-2-yl)-6-(trifluoromethyl)imidazo[1,2-a]pyridine]
27 | 10 to 100 nM | < 500 nM |  | Cc1cc(-c2cnc3ccc(N4CC(F)(F)C4)cn23)nc(N2C[C@@H](C)C[C@H](c3cn[nH]c3)C2)n1 [I-287, 6-(3,3-difluoroazetidin-1-yl)-3-(6-methyl-2-((3 S, 5R)-3-methyl-5-(1H-pyrazol-4-yl)piperidin-1-yl)pyrimidin-4-yl)imidazo[1,2-a]pyridine]
28 | 10 to 100 nM | 500 to 5000 nM |  | NC(=O)C1(C2CCCN(c3ccnc(-c4cnc5ccc(Cl)cn45)n3)C2)CC1 (centres unmarked) [I-303, 1-(1-(2-(6-chloroimidazo[1,2-a]pyridin-3-yl)pyrimidin-4-yl)piperidin-3-yl)cyclopropane-1-carboxamide]
